Results from patent US7438931B2, “Methods and compositions for the treatment of angiogenic diseases” (The Regents of The University of Michigan, priority 1998, dated 2008).
Several values for one entry are separate records, joined by “and”; a condition that tells them apart may be missing. Equal entries are not always repeated.

Experiments:
copper toxicity [1] = conditions: late stages of liver disease; cited from earlier work
Phase I trial: toxicity = assay type: in vivo, human
Excerpt: Six patients were to be enrolled at each dose level. After 4 patients were enrolled at level I, if one patient experienced dose-limiting toxicity (DLT) (defined as Hct<80% of baseline), 2 more patients were enrolled at level I. If no DLT was observed, patients were enrolled at the next dose level. Treatment was allowed to continue beyond induction of target copper deficiency, if the patients experienced a partial or complete clinical response or achieved clinical stable disease by the following definitions. Complete response is defined as the disappearance of all clinical and laboratory signs and symptoms of active disease. Partial response is defined as a 50% or greater reduction in the size of measurable lesions defined by the sum of the products of the longest perpendicular diameters of the lesions, with no new lesions or lesions increasing in size. Minor response is defined as a 25-49% reduction in the sum of the products of the longest perpendicular diameters of one or more measurable lesions, no increase in size of any lesions and no new lesions; stable disease is any change in tumor measurements not represented by the criteria for response or progressive disease, which is defined as an increase of 25% or more in the sum of the products of the longest perpendicular diameters of any measurable indicator lesions, compared to the smallest previous measurement or appearance of a new lesion. Because copper deficiency is not a cytotoxic treatment modality, the patients who provide information about the efficacy of TM for long-term therapy, in this population of patients with advanced cancer, are primarily those who remained within the target Cp window of (20±10)% of baseline for over 90 days, without disease progression
Complete blood counts, liver and renal function tests, urinalyses, and Cp level (by the oxidase method) were performed weekly for 16 weeks, then bi-weekly. Physical examinations and evaluations of toxicity were carried out every 2 weeks for 8 weeks, then every 4 weeks for the duration of therapy. Toxicity was evaluated using the National Cancer Institute Common Toxicity Criteria (Table 3). […] Nevertheless, therapy will be discontinued and the patient removed from the study if grade 3 or higher toxicities of any type are observed, whatever the probable etiology. For grade 2 toxicities, an attempt will be made to establish their etiology.

copper toxicity [2] = conditions: cited from earlier work
[3] = system: MML cells (prostate cancer) and breast cancer cells; test: Cytotoxicity assay of MML cells and breast cancer cells; assay type: cell-based
Excerpt: Normal and neoplastic cells in culture derive their nutrients from transport and utilization of molecules from the media to the interior of the cell. This process is not dependent on blood vessel growth, and therefore TM should have no effect on cell growth rates and cell viability over a wide range of concentration, until a level of TM which is toxic to most cells is reached. One mechanism of toxicity is the depletion of free copper levels below those required for basic cell function. For concentrations of TM beyond this toxic level, both normal and neoplastic cells will be unable to survive, due to cellular toxicity of TM.
This was confirmed in a cytotoxicity assay of MML cells (prostate cancer) and breast cancer cells. […] The fraction of viable cells decreased precipitously from 100% to 15% when the concentration of TM increased from 1 μg/ml to 10 μg/ml. TM is therefore not contemplated for use a direct cytotoxic agent, as it is clear that, at the very high doses required for a cytotoxic effect, both tumor and normal cell death would occur. The serum TM concentrations needed to achieve an effective decoppering level are 100-500-fold lower than the threshold lethal level for cells.

[4] = Storage stability of TM (bulk under argon, capsules); assay type: physicochemical; conditions: room temperature
Excerpt: The bulk drug is therefore stored under argon.
TM was purchased in bulk lots suitable for human administration (Aldrich Chemical Company, Milwaukee, Wis.). […] At the time a prescription was written, the appropriate dose of TM was placed in gelatin capsules. Previously, it was shown by the inventors that TM dispensed in such capsules retained at least 90% of its potency for eight weeks (Brewer et al., 1991a). Thus, TM was dispensed to each patient in eight-week installments throughout the trial.

Cp level = test: TM loading dosing schedule and Cp reduction; assay type: in vivo, human; conditions: 20 mg tid with meals and a single dose of 60 mg between meals, vs 20 mg tid with meals and 20 mg tid between meals
Method: Therefore, this dosing schedule will be studied in a Phase II study. Three other loading doses of TM will also be studied: Level 1: 20 mg tid between meals and 20 mg tid with meals until Cp<20% (10 patients); Level 2: 25 mg tid between meals and 25 mg tid with meals until Cp<20% (10 patients); and Level 3: 30 mg tid between meals and 30 mg tid with meals until Cp<20% (10 patients).

Method for mammary tumors: The time of onset of tumors and the quality and quantity of tumor vessels between the treatment and control groups were compared.
The percentage of disease-free mice in the untreated control group was compared to a group of the same transgenic mice treated with 0.5-1.0 mg TM by gavage daily, starting at 100 days of age.

Substance: tetrathiomolybdate [TM]
- efficacy against copper toxicity (copper toxicity [1]): very effective in treating these animals in the late stages of their liver disease
- toxicities (Phase I trial: toxicity; Cp levels at or above 20% of baseline): no cardiac, pulmonary, GI, renal, hepatic, hematologic, infectious, skin, mucosal, or neurologic toxicities observed
- patients with mild (greater than 80% of baseline Hct) reversible anemia (Phase I trial: toxicity; Cp levels between 10-20% of baseline): 4 patients
- toxicity (Phase I trial: toxicity; Cp lowered to 10-20% of baseline for up to 17 months of treatment): remarkably non-toxic
- toxicity (Phase I trial: toxicity; Cp reduced to 15-20% of baseline): non-toxic
- only drug-related toxicity observed (Phase I trial: toxicity; in vivo): mild anemia in one patient
- toxicities on long-term maintenance (Phase I trial: toxicity; mild clinical copper deficiency over 8-15 months): No additional toxicities of any type were observed
- time for hematocrit to recover after stopping the drug (Phase I trial: toxicity; one patient, without transfusion): 5 to 7 days
- other adverse effect (Phase I trial: toxicity; several patients, within 30 minutes of TM ingestion): transient, occasional sulphur-smelling burping
- tolerability of IV TM injections (copper toxicity [2]; copper loaded sheep, 50 or 100 mg 2× weekly for up to 11 weeks): tolerated up to 22 injections of TM without clinical problems
- adverse side effects (copper toxicity [2]; over 400 animals of commercial sheep flocks, prophylactic use): no adverse side effects
- serum TM concentrations for effective decoppering relative to threshold lethal level for cells [3]: 100-500 fold lower
- stability in capsules [4]: stable in capsules for several months at room temperature
- speed of Cp reduction (Cp level): reduces the Cp level to <20% more rapidly
- development of clinically overt tumors (mammary tumors; 0.5-1.0 mg TM by gavage daily from 100 days of age, median follow-up of 260 days): none of the TM-treated mice developed clinically overt tumors
- maximum tolerated dose (MTD) (mammary tumors; adult mice (average weight 32 grams), prolonged treatment): 1.0 mg/day
- outcome at higher doses (mammary tumors; animals who received 1.25-1.5 mg): died after 1-3 weeks of therapy
- shrinkage of well established mammary tumors (mammary tumors; control animals treated after tumors >1.5 cm, 2 of 3 cases): 25% and 50%
- anemia (mammary tumors; copper (Cp) decreased to below 40% of baseline): no anemia observed
- toxicity (mammary tumors; copper levels decreased to 10% of baseline): no clinically overt toxicity
- time to clinically overt mammary tumors after release from treatment (mammary tumors; cross-over group, previously disease-free): ≤ 18 days
- vascularization of micro-tumors in mammary glands (mammary tumors; microscopic analyses of TM-treated mice): none of the micro-tumors of the treated mice were vascularized
- ceruloplasmin (Cp) (mammary tumors; treatment group): below 40 % of baseline
